Reference: US20100041597A1, “PEPTIDES TARGETED TO PROTEIN KINASE C ISOFORMS AND USES THEREOF” (priority 2005, published 2010)
Values belong to the substance of their own block, whether it stands above or below them.

What was measured:
PKC-α [1] = target: T1, PKC-α (Rattus norvegicus, UniProt P05696); experiment: In vitro competition with anti-PKC-α antibody on blotted cell lysate, Protocol A, C6Cx43 cells; assay type: binding
T1 construct: Cell lysates from either IMR-32 (human neuroblastoma) cells or C6Cx43 cells; endogenous in cells; host or cells: C6Cx43 (rat glioma transfected with connexin 43)
Description: The ability of the peptides to interfere with the binding of a PKC-α-specific monoclonal antibody to PKC-α was determined using the following protocol.
Cell lysates from either IMR-32 (human neuroblastoma) cells or C6Cx43 cells (rat glioma transfected cells overexpressing connexin 43) were obtained using standard protocols and the proteins of the lysate were separated by SDS PAGE electrophoresis and electrotransferred onto a nitrocellulose membrane. […] A primary polyclonal antibody specific for PKC-α (Santa Cruz Biotechnology, Inc., CA) was then added (15 μg/ml) and the membrane incubated for a further 45 minutes. Finally, the primary antibody was detected with a secondary antibody conjugated to alkaline phosphatase using standard procedures. The intensity of the band corresponding to PKC-α was assessed by scanning and densitometry using the Gel-Pro software (Media Cybernetics) to obtain relative band intensities (average of 3 replicas). Control assays were conducted as described above except that blocking buffer without peptide was used.
The results are expressed as relative band intensity and as a percentage of the intensity of the corresponding band in the control assay (“Relative intensity (%)”). “% inhibition” relates to the percentage of the PKC-α band that is inaccessible to the antibody.

PKC-β = experiment: In vitro competition with anti-PKC-β antibody, Protocol B, IMR-32 cells; assay type: binding, human; details: PKC-β, IMR-32, Table 8
Description: The ability of the peptides PRE 2 and PRE 3 (see Table 3) to interfere with the binding of a PKC-α-specific polyclonal antibody (Santa Cruz Biotechnology, Inc.) to PKC-α was determined using a modified version of the protocol outlined above in which the test peptide was added directly to the cell extract prior to electrophoresis at a concentration of either 5× or 15× the concentration of the protein applied to each well of the gel for the Western blots (20 μg).
Peptides PRE 2 and PRE 3 (see Table 3) were tested for their ability to interfere with the binding of a PKC-β-specific polyclonal antibody (Santa Cruz Biotechnology, Inc.) to PKC-β using the general protocol described in Example 3.

PKCepsilon = target: T2, PKCepsilon (Homo sapiens, UniProt Q02156); experiment: Antibody competitive binding assay with fluorescent antibody (FIG. 4); details: PRE at 20× concentration
T2 construct: purchased
T2 sequence (Q02156 1-737): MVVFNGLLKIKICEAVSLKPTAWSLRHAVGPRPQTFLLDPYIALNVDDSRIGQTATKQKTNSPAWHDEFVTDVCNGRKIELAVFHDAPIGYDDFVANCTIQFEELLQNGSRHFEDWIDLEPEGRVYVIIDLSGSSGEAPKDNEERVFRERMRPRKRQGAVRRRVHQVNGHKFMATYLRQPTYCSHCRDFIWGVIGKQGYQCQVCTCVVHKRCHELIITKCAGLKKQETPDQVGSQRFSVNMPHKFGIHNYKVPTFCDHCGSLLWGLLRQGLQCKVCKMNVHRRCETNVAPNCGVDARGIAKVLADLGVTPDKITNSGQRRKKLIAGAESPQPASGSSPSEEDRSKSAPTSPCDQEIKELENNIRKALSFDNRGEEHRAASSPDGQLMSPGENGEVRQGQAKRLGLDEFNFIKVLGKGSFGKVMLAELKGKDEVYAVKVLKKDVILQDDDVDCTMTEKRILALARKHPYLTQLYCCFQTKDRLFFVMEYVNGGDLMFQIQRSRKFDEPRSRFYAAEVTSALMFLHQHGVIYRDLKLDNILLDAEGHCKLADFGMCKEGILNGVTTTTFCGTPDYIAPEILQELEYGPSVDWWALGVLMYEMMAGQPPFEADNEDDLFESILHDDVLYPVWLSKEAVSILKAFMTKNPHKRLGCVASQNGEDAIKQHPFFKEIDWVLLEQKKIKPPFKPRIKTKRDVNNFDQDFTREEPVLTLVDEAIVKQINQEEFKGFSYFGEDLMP
Description: (§1) FIG. 4 presents data from conventional antibody competitive binding assays using PKC-α versus a representative battery of PKC isoforms (commercially available). PKC isoforms representing the three subgroups of the PKC family were assessed (classical PKCs=PKCalpha; novel PKCs=PKCdelta and epsilon; atypical PKCs=PKCzeta). Controls received the appropriate PKC isoform fluorescent antibody. Treated samples received the PRE sequence from PhGα1 (20× concentration) and the same PKC antibody. Specific affinity to PKC-α in the treated sample by the PRE will therefore decrease the amount of binding by the fluorescent antibody, represented by a decrease in fluorescent intensity in the treated sample.

PKC-α [2] = target: PKC-α (Homo sapiens, UniProt P17252); experiment: as above; details: PRE at 20× concentration
Description: as §1

Band Intensity (PKC-α [1]; 75 μg, Table 5): 0.909
inhibition at 0.075 mg (PKC-α [1]; 75 μg, Table 5): 0%
remaining activity at 0.075 mg (PKC-α [1]; 75 μg, Table 5, read-out: Relative Intensity (%)): 98%
Band Intensity (PKC-α [1]; 300 μg, Table 5): 0.888
inhibition at 0.3 mg (PKC-α [1]; 300 μg, Table 5): 0%
remaining activity at 0.3 mg (PKC-α [1]; 300 μg, Table 5, read-out: Relative Intensity (%)): 95.8%
Band Intensity (PKC-α [1]; 600 μg, Table 5): 0.889
inhibition at 0.6 mg (PKC-α [1]; 600 μg, Table 5): 0%
remaining activity at 0.6 mg (PKC-α [1]; 600 μg, Table 5, read-out: Relative Intensity (%)): 95.9%
Band Intensity (PKC-α [1]; 3.75 mg, Table 5): 0.603
remaining activity at 3.75 mg (PKC-α [1]; 3.75 mg, Table 5, read-out: Relative Intensity (%)): 105%
Band Intensity (PKC-α [1]; 5.25 mg, Table 5): 0.599
remaining activity at 5.25 mg (PKC-α [1]; 5.25 mg, Table 5, read-out: Relative Intensity (%)): 105%
Band Intensity (PKC-α [1]; 7.5 mg, Table 5): 0.589
inhibition at 7.5 mg (PKC-α [1]; 7.5 mg, Table 5): 0%
remaining activity at 7.5 mg (PKC-α [1]; 7.5 mg, Table 5, read-out: Relative Intensity (%)): 103%
Substance: Ac-AKGIQEVKGGDAQNLIGISI-NH2 [PRE 3]
Band Intensity (PKC-β; 100 μg): 0.0
Inhibition (%) (PKC-β; 100 μg): 100.0%
Relative Intensity (%) (PKC-β; 100 μg): 0.0%
Band Intensity (PKC-β; 200 μg): 0.0
Inhibition (%) (PKC-β; 200 μg): 100.0%
Relative Intensity (%) (PKC-β; 200 μg): 0.0%
Band Intensity (PKC-β; 300 μg): 0.0
Inhibition (%) (PKC-β; 300 μg): 100.0%
Relative Intensity (%) (PKC-β; 300 μg): 0.0%

effect on fluorescent antibody binding to PKCepsilon (PKCepsilon): not with PKCdelta, epsilon or zeta
effect on fluorescent antibody binding to PKC-α (PKC-α [2]): decrease in antibody binding
Substance: Ac-KDAQNLIGISI-NH2 [PRE 4, Ac-KDAQNLIGISI-NH2]
